Test results as given in patent US12594276B2, “Inhibitors of human immunodeficiency virus replication” (ViiV Healthcare UK (No.5) Limited, priority 2024, dated 2026).

Experiments:
[1] = Compound cytotoxicity, XTT-based colorimetric assay; format: cell-based; settings: human; uninfected MT2 cells, day 4, XTT; read-out: CC50
Description: Compound cytotoxicity and the corresponding CC50 values were determined using the same protocol as described in the antiviral assay except that uninfected cells were used. Cytotoxicity was assessed on day 4 in uninfected MT2 cells by using an XTT (2,3-bis[2-Methoxy-4-nitro-5-sulfophenyl]-2H-tetrazolium-5-carboxyanilide inner salt)-based colorimetric assay (Sigma-Aldrich, St Louis, Mo).

[2] = system: recombinant NL4-3 virus (nef section replaced with Renilla luciferase gene) in MT-2 cells; assay: HIV cell culture assay (antiviral activity, luciferase readout); format: cell-based; settings: Renilla, NL43, MT-2 cells infected for 4-5 days with recombinant NL4-3 Renilla luciferase virus
Description: HIV cell culture assay—MT-2 cells, 293T cells and the proviral DNA clone of NL4-3 virus were obtained from the NIH AIDS Research and Reference Reagent Program. MT-2 cells were propagated in RPMI 1640 media supplemented with 10% heat inactivated fetal bovine serum (FBS), […]. The 293T cells were propagated in DMEM media supplemented with 10% heat inactivated FBS, […]. A recombinant NL4-3 proviral clone, in which a section of the nef gene was replaced with the Renilla luciferase gene, was used to make the reference virus used in these studies. The recombinant virus was prepared through transfection of the recombinant NL4-3 proviral clone into 293T cells using Transit-293 Transfection Reagent from Mirus Bio LLC (Madison, WI). Supernatant was harvested after 2-3 days and the amount of virus present was titered in MT-2 cells using luciferase enzyme activity as a marker by measuring luciferase enzyme activity. Luciferase was quantitated using the EnduRen Live Cell Substrate from Promega (Madison, WI). Antiviral activities of compounds toward the recombinant virus were quantified by measuring luciferase activity in MT-2 cells infected for 4-5 days with the recombinant virus in the presence of serial dilutions of the compound.
The 50% effective concentration (EC50) was calculated by using the exponential form of the median effect equation where (Fa)=1/[1+(ED50/drug conc.)m](Johnson V A, Byington R T. Infectivity Assay. In Techniques in HIV Research. ed. Aldovini A, Walker B D. 71-76. New York: Stockton Press. 1990). Curve fitting and analysis were performed with ActivityBase XE Runner software version 9.1.0.4 using model 203 (ID Business Solutions, LTD, Guildford, UK).

Row | Structure (SMILES) | CC50 at 4 days [1] [nM] | EC50 [2] [nM]
1 | Cc1cc(C2CCC(F)(F)CC2)nc2nc([C@H](Cc3cc(F)cc(F)c3)NC(=O)Cn3nc(C4CC4)c4c3C(F)(F)[C@@H]3C[C@H]43)n(-c3ccc(Cl)c4c(NS(C)(=O)=O)nn(CCN5CCOCC5)c34)c(=O)c12 (atropisomer, axis not shown; (P)) [Example 112, N-[(1S)-1-[(3P)-3-{4-chloro-3-methanesulfonamido-1-[2-(morpholin-4-yl)ethyl]-1H-indazol-7-yl}-7-(4,4-difluorocyclohexyl)-5-methyl-4-oxo-3H,4H-pyrido[2,3-d]pyrimidin-2-yl]-2-(3,5-difluorophenyl)ethyl]-2-[(2S,4R)-9-cyclopropyl-5,5-difluoro-7,8-diazatricyclo[4.3.0.0^2,^4]nona-1(6),8-dien-7-yl]acetamide] | > 50 | 0.013
2 | COCCCn1nc(NS(C)(=O)=O)c2c(Cl)ccc(-n3c([C@H](Cc4cc(F)cc(F)c4)NC(=O)Cn4nc(C(F)F)c5c4C(F)(F)[C@@H]4C[C@H]54)nc4nc(C5CCC(F)(F)CC5)cc(NCCN5CCC(F)(F)C5)c4c3=O)c21 (atropisomer, axis not shown; (P)) [Example 552, N-[(1S)-1-[(3P)-3-[4-chloro-3-methanesulfonamido-1-(3-methoxypropyl)-1H-indazol-7-yl]-7-(4,4-difluorocyclohexyl)-5-{[2-(3,3-difluoropyrrolidin-1-yl)ethyl]amino}-4-oxo-3H,4H-pyrido[2,3-d]pyrimidin-2-yl]-2-(3,5-difluorophenyl)ethyl]-2-[(2S,4R)-9-(difluoromethyl)-5,5-difluoro-7,8-diazatricyclo[4.3.0.0^2,^4]nona-1(6),8-dien-7-yl]acetamide] | > 20 | 0.006
3 | C[C@@H]1CN(CCn2nc(NS(C)(=O)=O)c3c(Cl)ccc(-n4c([C@H](Cc5cc(F)cc(F)c5)NC(=O)Cn5nc(C6CC6)c6c5C[C@@H]5C[C@H]65)nc5nc(C6CCC(F)(F)CC6)cc(C6CC6)c5c4=O)c32)C[C@H](C)O1 (atropisomer, axis not shown; (P)) [Example 324, N-[(1S)-1-[(3P)-3-(4-chloro-1-{2-[(2R,6S)-2,6-dimethylmorpholin-4-yl]ethyl}-3-methanesulfonamido-1H-indazol-7-yl)-5-cyclopropyl-7-(4,4-difluorocyclohexyl)-4-oxo-3H,4H-pyrido[2,3-d]pyrimidin-2-yl]-2-(3,5-difluorophenyl)ethyl]-2-[(2S,4S)-9-cyclopropyl-7,8-diazatricyclo[4.3.0.0^2,^4]nona-1(6),8-dien-7-yl]acetamide] | > 50 | 0.014
4 | CS(=O)(=O)Nc1nn(CCN2CC(C(F)F)C2)c2c(-n3c([C@H](Cc4cc(F)cc(F)c4)NC(=O)Cn4nc(C(F)F)c5c4C(F)(F)[C@@H]4C[C@H]54)nc4nc(C5CCC(F)(F)CC5)cc(C(F)F)c4c3=O)ccc(Cl)c12 (atropisomer, axis not shown; (P)) [Example 315, N-[(1S)-1-[(3P)-3-(4-chloro-1-{2-[3-(difluoromethyl)azetidin-1-yl]ethyl}-3-methanesulfonamido-1H-indazol-7-yl)-7-(4,4-difluorocyclohexyl)-5-(difluoromethyl)-4-oxo-3H,4H-pyrido[2,3-d]pyrimidin-2-yl]-2-(3,5-difluorophenyl)ethyl]-2-[(2S,4R)-9-(difluoromethyl)-5,5-difluoro-7,8-diazatricyclo[4.3.0.0^2,^4]nona-1(6),8-dien-7-yl]acetamide] | > 50 | 0.025
